Assay results from patent US10081630B2, “Radioactive halogen-labeled pyrido [1,2-A] benzimidazole derivative compound” (KYOTO UNIVERSITY, priority 2015, dated 2018).

Key:
[1] = test system: tau accumulated in the brain with AD; test: In vitro autoradiography using autopsied brain tissue of Alzheimer's disease patient; type: binding, human
Experimental: (Evaluation 1) In Vitro Autoradiography Using Autopsied Brain Tissue of Alzheimer's Disease Patient (1) In Vitro Autoradiography
Autopsied brain tissue sections of an Alzheimer's disease (AD) patient (sections from a frontal lobe site and a temporal lobe site, 6 μm) were used, which were provided from Graduate School of Medicine, Kyoto University and National Cerebral and Cardiovascular Center Hospital. Deparaffinization treatment was performed by washing with xylene (15 min×2), ethanol (1 min×2), a 90 vol % aqueous ethanol solution (1 min×1), an 80 vol % aqueous ethanol solution (1 min×1), a 70 vol % aqueous ethanol solution (1 min×1), and purified water (2.5 min×2). A 10 vol % aqueous ethanol solution of each radioactive iodine-labeled BIP derivative compound (370 kBq/mL) obtained by the method shown in Example 7 was added thereto, and the tissue sections were incubated at room temperature for 2 hours. The tissue sections were washed with a 50 vol % aqueous ethanol solution (1 hr×1), then exposed to an imaging plate (BAS-SR2025 manufactured by Fujifilm Corp.), and analyzed using a bioimaging analyzer (bioimaging analyzer BAS-5000 manufactured by Fujifilm Corp.). Multi Gauge manufactured by Fujifilm Corp. was used in quantitative analysis.
FIGS. 5E and 5F show the results obtained using [^125I]BIP-NMe2. FIGS. 5G and 5H show the results obtained using [^125I]BIP-OMe. FIGS. 5I and 5J show the results obtained using [^125I]BIP-Me. FIGS. 5E, 5G, and 5I show the results obtained using the brain tissue section of the frontal lobe. FIGS. 5F, 5H, and 5J show the results obtained using the brain tissue section of the temporal lobe.
Tau and Aβ were immunostained using sections adjacent to the autopsied AD brain tissue sections used in autoradiography. An anti-phosphorylated tau monoclonal antibody (AT8, manufactured by Thermo Fisher Scientific Inc.) was used as a primary antibody in the immunostaining of tau, and an anti-Aβ1-42 monoclonal antibody (BC05, manufactured by Wako Pure Chemical Industries, Ltd.) was used as a primary antibody in the immunostaining of Aβ. Deparaffinization treatment was performed by washing with xylene (15 min×2), ethanol (1 min×2), a 90 vol % aqueous ethanol solution (1 min×1), an 80 vol % aqueous ethanol solution (1 min×1), a 70 vol % aqueous ethanol solution (1 min×1), and purified water (2.5 min×2). The antigens were retrieved by autoclaving (15 min) in a 0.01 mol/L citrate buffer solution (pH 6.0) and formic acid treatment (5 min). The tissue sections were washed with running water (5 min) and then washed with PBS-Tween 20 (2 min×1). The tissue sections were reacted with primary antibody solutions at room temperature for 1 hour and then washed with PBS-Tween 20 (5 min×3). The tissue sections were reacted with Histofine Simple Stain MAX-PO (MULTI) (manufactured by Nichirei Biosciences Inc.) at room temperature for 30 minutes and then washed with PBS-Tween 20 (3 min×3) and TBS (5 min×1). Finally, the tissue sections were reacted with a DAB solution at room temperature for 1 minute. The tissue sections were washed with distilled water (1 min×1) to terminate the reaction. The brain tissue sections were mounted on slides and then observed under a microscope (BZ-9000 manufactured by Keyence Corporation).
FIGS. 5A and 5B show the results obtained using the brain tissue section of the frontal lobe. FIGS. 5C and 5D show the results obtained using the brain tissue section of the temporal lobe. FIGS. 5A and 5C show the results of immunostaining with the antibody against tau. FIGS. 5B and 5D show the results of immunostaining with the antibody against Aβ.

[2] = Evaluation of in vivo radioactivity distribution in normal mouse; conditions: normal ddY male mice, tail vein; for radioactivity distribution, Blood / radioactivity distribution, Brain / radioactivity distribution, Heart / radioactivity distribution, Intestine / radioactivity distribution, Kidney / radioactivity distribution, Liver / radioactivity distribution, Lung / radioactivity distribution, Pancreas / radioactivity distribution, Spleen / radioactivity distribution, Stomach / radioactivity distribution, Thyroid gland: mean (SD)
Experimental: (Evaluation 2) Evaluation of In Vivo Radioactivity Distribution in Normal Mouse
Each compound of [^125I]BIP-NMe2, [^125I]BIP-OMe, and [^125I]BIP-Me synthesized according to the method shown in Example 7 was diluted with saline containing 10 vol % ethanol and 0.1 vol % Tween 80. Each radioactive iodine-labeled BIP derivative compound was administered to a group of 5-week-old ddY male mice (26 to 28 g; each group involved 5 mice) from the tail veins thereof at 19.6 to 29.4 kBq (100 μL) per mouse. After 2, 10, 30, or 60 minutes, the mice were slaughtered. After blood collection, the organs were taken out, and their weights and radioactivity were measured.
In Tables 2 to 4, the numerical values shown in the column “Time after administration” are means of % ID for the stomach and the thyroid gland and means of % ID/g for the other tissues with standard deviation (SD) shown in parenthesis.

Cc1ccn2c(c1)nc1cc([125I])ccc12 [[^125I]BIP-Me, 7-[^125I]iodo-3-methylbenzo[4,5]imidazo[1,2-a]pyridine]
radioactivity accumulation in the brain tissue section of the frontal lobe ([1]; AD patient autopsied brain section, frontal lobe, 370 kBq/mL, 2 hours room temperature): none | radioactivity accumulation in the brain tissue section of the temporal lobe ([1]; AD patient autopsied brain section, temporal lobe, 370 kBq/mL, 2 hours room temperature): exhibited radioactivity accumulation in only the brain tissue section of the temporal lobe | nonspecific binding to the brain white matter ([1]; AD patient autopsied brain sections): low | visualization of tau (autoradiography compared with tau and Aβ immunostaining) ([1]; AD patient temporal lobe section, adjacent sections immunostained (AT8, BC05)): clearly visualizes tau accumulated in the brain with AD | clearance from the brain [2]: rapid clearance from the brain | transfer to the brain early after administration [2]: high transfer to the brain | radioactivity distribution, Blood ([2]; 2 min after administration): 3.63(0.19) % ID/g | radioactivity distribution, Brain ([2]; 2 min after administration): 4.28(0.50) % ID/g | radioactivity distribution, Heart ([2]; 2 min after administration): 4.40(0.59) % ID/g | radioactivity distribution, Intestine ([2]; 2 min after administration): 3.38(0.55) % ID/g | radioactivity distribution, Kidney ([2]; 2 min after administration): 7.32(0.61) % ID/g | radioactivity distribution, Liver ([2]; 2 min after administration): 19.7(2.89) % ID/g | radioactivity distribution, Lung ([2]; 2 min after administration): 6.54(0.76) % ID/g | radioactivity distribution, Pancreas ([2]; 2 min after administration): 3.85(0.39) % ID/g | radioactivity distribution, Spleen ([2]; 2 min after administration): 4.22(0.43) % ID/g | radioactivity distribution, Stomach ([2]; 2 min after administration): 2.68(0.25) % ID | radioactivity distribution, Thyroid gland ([2]; 2 min after administration): 0.06(0.03) % ID | radioactivity distribution, Blood ([2]; 10 min after administration): 2.37(0.22) % ID/g | radioactivity distribution, Brain ([2]; 10 min after administration): 0.94(0.17) % ID/g | radioactivity distribution, Heart ([2]; 10 min after administration): 1.61(0.19) % ID/g | radioactivity distribution, Intestine ([2]; 10 min after administration): 14.2(5.56) % ID/g | radioactivity distribution, Kidney ([2]; 10 min after administration): 6.75(0.83) % ID/g | radioactivity distribution, Liver ([2]; 10 min after administration): 13.7(1.67) % ID/g | radioactivity distribution, Lung ([2]; 10 min after administration): 2.37(0.31) % ID/g | radioactivity distribution, Pancreas ([2]; 10 min after administration): 1.38(0.29) % ID/g | radioactivity distribution, Spleen ([2]; 10 min after administration): 1.94(0.29) % ID/g | radioactivity distribution, Stomach ([2]; 10 min after administration): 6.52(1.23) % ID | radioactivity distribution, Thyroid gland ([2]; 10 min after administration): 0.03(0.02) % ID | radioactivity distribution, Blood ([2]; 30 min after administration): 1.53(0.52) % ID/g | radioactivity distribution, Brain ([2]; 30 min after administration): 0.14(0.03) % ID/g | radioactivity distribution, Heart ([2]; 30 min after administration): 0.66(0.10) % ID/g | radioactivity distribution, Intestine ([2]; 30 min after administration): 19.5(2.03) % ID/g | radioactivity distribution, Kidney ([2]; 30 min after administration): 4.05(1.19) % ID/g | radioactivity distribution, Liver ([2]; 30 min after administration): 7.32(0.71) % ID/g | radioactivity distribution, Lung ([2]; 30 min after administration): 1.14(0.11) % ID/g | radioactivity distribution, Pancreas ([2]; 30 min after administration): 0.50(0.08) % ID/g | radioactivity distribution, Spleen ([2]; 30 min after administration): 0.60(0.13) % ID/g | radioactivity distribution, Stomach ([2]; 30 min after administration): 7.05(2.50) % ID | radioactivity distribution, Thyroid gland ([2]; 30 min after administration): 0.02(0.00) % ID | radioactivity distribution, Blood ([2]; 60 min after administration): 0.77(0.12) % ID/g | radioactivity distribution, Brain ([2]; 60 min after administration): 0.04(0.00) % ID/g | radioactivity distribution, Heart ([2]; 60 min after administration): 0.36(0.07) % ID/g | radioactivity distribution, Intestine ([2]; 60 min after administration): 28.7(5.09) % ID/g | radioactivity distribution, Kidney ([2]; 60 min after administration): 2.19(1.23) % ID/g | radioactivity distribution, Liver ([2]; 60 min after administration): 4.69(0.54) % ID/g | radioactivity distribution, Lung ([2]; 60 min after administration): 0.65(0.11) % ID/g | radioactivity distribution, Pancreas ([2]; 60 min after administration): 0.40(0.24) % ID/g | radioactivity distribution, Spleen ([2]; 60 min after administration): 0.36(0.10) % ID/g | radioactivity distribution, Stomach ([2]; 60 min after administration): 7.43(1.29) % ID | radioactivity distribution, Thyroid gland ([2]; 60 min after administration): 0.01(0.00) % ID
